Measured values published in patent publication US10227331B2 (priority 2015, dated 2019).
Like-named read-outs stand apart in the source and are kept apart here.

Columns and labels:
VIM-1 = VIM-1 (Pseudomonas aeruginosa (strain ATCC 15692 / DSM 22644 / CIP 104116 / JCM 14847 / LMG 12228 / 1C / PRS 101 / PAO1), UniProt A0A0F7KYQ8); experiment: biochemical; conditions: CCF2-FA substrate, 2 hours at 25° C
In short: (§1)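 Class B activity is measured in the presence of compound by fluorescence with CCF2-FA after a 2-hour incubation at 25° C. IC50 is taken from a 4-parameter fit of semi-logarithmic dose-response data.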

NDM-1 = NDM-1 (Klebsiella pneumoniae, UniProt C7C422); experiment: biochemical; format: biochemical; conditions: CCF2-FA substrate, 2 hours at 25° C; read-out: NDM-1 IC50
Chain of NDM-1 (C7C422 whole entry, looked up, species assumed): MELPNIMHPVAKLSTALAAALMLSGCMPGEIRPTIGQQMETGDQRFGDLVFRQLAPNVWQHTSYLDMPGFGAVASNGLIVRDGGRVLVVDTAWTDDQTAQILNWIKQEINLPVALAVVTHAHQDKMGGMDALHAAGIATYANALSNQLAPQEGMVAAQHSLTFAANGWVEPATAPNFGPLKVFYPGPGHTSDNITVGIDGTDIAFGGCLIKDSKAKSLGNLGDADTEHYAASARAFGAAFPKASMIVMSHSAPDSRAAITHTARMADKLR
In short: as §1

IMP-1 = IMP-1 (Serratia marcescens, UniProt P52699); experiment: biochemical; format: biochemical
Chain of IMP-1 (P52699 whole entry, looked up, species assumed): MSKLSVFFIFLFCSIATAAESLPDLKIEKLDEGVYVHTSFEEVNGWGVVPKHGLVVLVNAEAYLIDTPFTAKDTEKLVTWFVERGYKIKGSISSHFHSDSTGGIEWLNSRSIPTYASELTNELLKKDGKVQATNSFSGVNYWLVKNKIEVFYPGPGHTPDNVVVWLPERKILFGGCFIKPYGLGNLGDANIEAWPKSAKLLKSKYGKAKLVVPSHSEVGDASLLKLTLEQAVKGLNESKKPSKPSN
In short: as §1

[1] = tested on: P. aeruginosa expressing IMP-1, efflux+ (MB9798); format: cell-based, Pseudomonas aeruginosa; conditions: for P. aeruginosa expressing IMP-1, efflux+ (MB9798) MITC95: imipenem at 2 μg/mL, in the presence of a class A, C, D serine β-lactamase inhibitor closely related to relebactam; for Efflux ratio: ratio MITC95 PA_9798/MITC95 PA_9799
Source text: (§2) The strain background is Pseudomonas aeruginosa PAO1.

[2] = tested on: P. aeruginosa expressing IMP-1, efflux− (MB9799); experiment: Efflux: concentration of MBL inhibitor which restores susceptibility to imipenem; format: cell-based, Pseudomonas aeruginosa; conditions: imipenem at 2 μg/mL, in the presence of a class A, C, D serine β-lactamase inhibitor closely related to relebactam
Source text: as §2

[3] = tested on: Escherichia coli expressing NDM-1 (CLB30005, CLB30016); format: cell-based; conditions: with imipenem 1 μg/ml; 95% inhibition of bacterial growth
In short: (§3)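 Clinical strains grown overnight on blood agar, then diluted 1:100 in 1.1× CAMHB and exposed to test compound with imipenem at 1 μg/ml. Incubation was 22–24 h at 35° C; growth was read by absorbance to find the compound concentration restoring imipenem susceptibility.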

[4] = tested on: Serratia marcescens expressing IMP-1 (CL5741); format: cell-based; conditions: with imipenem 1 μg/ml; 95% inhibition of bacterial growth
In short: as §3

[5] = tested on: Klebsiella pneumoniae expressing VIM-1 (IHMA599644); format: cell-based; conditions: with imipenem 1 μg/ml; 95% inhibition of bacterial growth
In short: as §3

[6] = CCF2-FA substrate, 2 hours at 25° C, read-out: IMP-1 IC50

SMILES | IC50 (VIM-1) [nM] | IC50 (NDM-1) [nM] | IC50 (IMP-1; [6]) [nM] | P. aeruginosa expressing IMP-1, efflux+ (MB9798) MITC95 [1] [µM] | Efflux ratio [1] | P. aeruginosa expressing IMP-1, efflux− (MB9799) MITC95 [2] [µM] | Escherichia coli expressing NDM-1 (CLB30016) MITC95 [3] [µM] | Serratia marcescens expressing IMP-1 (CL5741) MITC95 [4] [µM] | Klebsiella pneumoniae expressing VIM-1 (IHMA599644) MITC95 [5] [µM] | IC50 (IMP-1) [nM]
Nc1nccc(-c2ccc(S(=O)(=O)C3CNC3)c(S(N)(=O)=O)c2-c2nn[nH]n2)c1N [Example 224, 6-(azetidin-3-ylsulfonyl)-3-(2,3-diaminopyridin-4-yl)-2-(2H-tetrazol-5-yl)benzenesulfonamide] | 1.29 | 0.618 | 2.58 | 3.125 | 2.00 | 1.563 | 0.7813 | 3.125 | 3.125 | –
NCCS(=O)(=O)c1ccc(-c2cccc3nc(N)nn23)c(-c2nn[nH]n2)c1S(N)(=O)=O [Example 225, 3-(2-amino-[1,2,4]triazolo[1,5-a]pyridin-5-yl)-6-((2-aminoethyl)sulfonyl)-2-(2H-tetrazol-5-yl)benzenesulfonamide] | 0.229 | 0.164 | 1.97 | 3.125 | 2.00 | 1.563 | 1.563 | 1.563 | 3.125 | –
NS(=O)(=O)c1c(SC2CCNCC2)ccc(-c2ccc(C3CCNCC3)cc2)c1-c1nnn[nH]1 [Example 226, 4′-(piperidin-4-yl)-4-(piperidin-4-ylthio)-2-(1H-tetrazol-5-yl)-[1,1′-biphenyl]-3-sulfonamide] | 48.5 | 15.1 | 35.7 | 25 | 32.00 | 0.7813 | 1.563 | 3.125 | 6.25 | –
NS(=O)(=O)c1c([S+]([O-])C2CCNCC2)ccc(-c2ccc(C3CCNCC3)cc2)c1-c1nnn[nH]1 (stereo not drawn) [Example 227, 4′-(piperidin-4-yl)-4-(piperidin-4-ylsulfinyl)-2-(1H-tetrazol-5-yl)-[1,1′-biphenyl]-3-sulfonamide] | 1.18 | 1.95 | 5.9 | 3.125 | 2.00 | 1.563 | 3.125 | 6.25 | 6.25 | –
NS(=O)(=O)c1c(S(=O)(=O)C2CCNCC2)ccc(-c2ccc(C3CCNCC3)cc2)c1-c1nnn[nH]1 [Example 228, 4′-(piperidin-4-yl)-4-(piperidin-4-ylsulfonyl)-2-(1H-tetrazol-5-yl)-[1,1′-biphenyl]-3-sulfonamide] | 0.314 | 0.985 | 0.521 | 0.7813 | 1.00 | 0.7813 | 1.563 | 3.125 | 3.125 | –
Cn1cc(C(=O)C(F)(F)F)c2c(-c3ccc(S(=O)(=O)C4CNC4)c(S(N)(=O)=O)c3-c3nnn[nH]3)cccc21 [Example 229, 6-(azetidin-3-ylsulfonyl)-3-(1-methyl-3-(2,2,2-trifluoroacetyl)-1H-indol-4-yl)-2-(1H-tetrazol-5-yl)benzenesulfonamide] | 0.474 | 0.139 | – | 25 | 4.00 | 6.25 | 6.25 | 6.25 | 12.5 | 1.74
COc1ccc(Cc2cc3c(-c4ccc(S(=O)(=O)C5CNC5)c(S(N)(=O)=O)c4-c4nnn[nH]4)cccc3n2C)cc1 [Example 230, 6-(azetidin-3-ylsulfonyl)-3-(2-(4-methoxybenzyl)-1-methyl-1H-indol-4-yl)-2-(1H-tetrazol-5-yl)benzenesulfonamide] | 0.356 | 0.11 | 0.436 | 100 | 32.00 | 3.125 | 6.25 | 6.25 | 25 | –
